SMILES strings stand for the structures. In brackets after ≈: the same amount, converted by molar mass. Where only a bound is given, the exact number is not on record here.

Data on 29 molecules can be found in patent publication US20250326713A1, “INHIBITORS OF MsbA AS ANTIBIOTICS, PHARMACEUTICAL COMPOSITIONS, AND USES THEREOF” (priority 2022, published 2025).

The assay concerns various strains of bacteria. In words: Antimicrobial potency: bacterial growth inhibition by OD600 (Antibacterial assay 1, MITC95). It is filed as cell-based, A. baumannii. The note with it: lowest concentration giving >95% growth inhibition, CAMHB, 18-22 h. The method, then:
The concentrations of compounds required to inhibit the growth of various strains of bacteria were determined in an assay that assessed bacterial growth by measuring optical density at 600 nm (OD600). Test articles were dissolved in 100% DMSO and serially diluted two-fold from their maximal concentration in 100% DMSO. Forty-nine μl of bacterial inoculum (at approx. 2×10^5 cfu/mL in CAMHB) were put into wells of an assay plate. One μl of compound or DMSO was transferred from the source plate to the assay plate. The completed assay plates were then incubated at 35+2degC for 18-22 h. Bacterial growth was measured by reading OD600 on a spectrophotometer. Data analysis calculates the lowest concentration of compound which results in >95% growth inhibition (minimum inhibitory threshold concentration 95%, MITC95).

The term MIC denotes the lowest concentration found to suppress growth. `O=C(O)c1cc(CNC2CC(COc3ccc(NS(=O)(=O)c4cnn(-c5ccc(Cl)cc5)c4)c(C(=O)O)c3)C2)ccc1NS(=O)(=O)c1cnn(-c2ccc(Cl)cc2)c1` (centres unmarked) [Compound 87, 5-(((1s, 3s)-3-((3-carboxy-4-((1-(4-chlorophenyl)-1H-pyrazole)-4-sulfonamido)benzyl)amino)cyclobutyl)methoxy)-2-((1-(4-chlorophenyl)-1H-pyrazole)-4-sulfonamido)benzoic acid] showed an MIC of 0.0245 µM (≈ 0.0212 µg/mL).
In turn, `O=C(O)c1cc(OC[C@H]2C[C@@H](NCc3ccc(NS(=O)(=O)N4CCOC(c5ccc(F)cc5)C4)c(C(=O)O)c3)C2)ccc1NS(=O)(=O)c1cnn(-c2ccc(F)cc2)c1` (some centres unmarked) [Compound 88] gave an MIC (Acinetobacter baumannii, 20 h) of 0.0122 µM (≈ 0.0104 µg/mL).
Same read-out and setting: next, `O=C(O)c1cc(OC[C@H]2C[C@@H](NCc3ccc(NS(=O)(=O)N4CCOC(c5ccc(F)cc5)C4)c(C(=O)O)c3)C2)ccc1NS(=O)(=O)c1cnn(-c2ccc(Cl)cc2)c1` (some centres unmarked) [Compound 89]: less than 0.00306 µM.
`O=C(O)c1cc(CN[C@H]2C[C@@H](COc3ccc(NS(=O)(=O)c4cnc(-c5ccc(Cl)cc5)s4)c(C(=O)O)c3)C2)ccc1NS(=O)(=O)CCc1ccc(F)cc1` [Compound 90] showed an MIC (Acinetobacter baumannii, 20 h) of 0.00865 µM (≈ 0.00717 µg/mL).
Still for that read-out and setting: next, `Cn1nc(-c2ccc(F)cc2)cc1S(=O)(=O)Nc1ccc(CN[C@H]2C[C@@H](COc3ccc(NS(=O)(=O)c4cnn(-c5ccc(Cl)cc5)c4)c(C(=O)O)c3)C2)cc1C(=O)O` [Compound 91]: 0.0173 µM (≈ 0.015 µg/mL); `O=C(O)c1cc(OC[C@H]2C[C@@H](NCc3ccc(NS(=O)(=O)N4CCOC(c5ccc(F)cc5)C4)c(C(=O)O)c3)C2)ccc1NS(=O)(=O)c1cnc(-c2ccc(F)cc2)s1` (some centres unmarked) [Compound 92]: 0.00611 µM (≈ 0.00532 µg/mL).
Still for that read-out and setting: next, `O=C(O)c1cc(CN[C@H]2C[C@@H](COc3ccc(NS(=O)(=O)c4cnc(-c5ccc(Cl)cc5)s4)c(C(=O)O)c3)C2)ccc1NS(=O)(=O)CCc1ccc(Cl)cc1` [Compound 93]: 0.00611 µM (≈ 0.00517 µg/mL).
Same read-out and setting: with `O=C(O)c1cc(CN[C@H]2C[C@@H](COc3ccc(NS(=O)(=O)c4ccc(-c5ccc(Cl)cc5)s4)c(C(=O)O)c3)C2)ccc1NS(=O)(=O)CCc1ccc(Cl)cc1` [Compound 94] the figure was 0.0086 µM (≈ 0.00727 µg/mL); with `O=C(O)c1cc(CN[C@H]2C[C@@H](COc3ccc(NS(=O)(=O)N4CCOC(c5ccc(F)cc5)C4)c(C(=O)O)c3)C2)ccc1NS(=O)(=O)N1CCOC(c2ccc(F)cc2)C1` (some centres unmarked) [Compound 95], 0.0122 µM (≈ 0.0106 µg/mL).
`O=C(O)c1cc(OC[C@H]2C[C@@H](NCc3ccc(NS(=O)(=O)N4CC(Oc5ccc(F)cc5)C4)c(C(=O)O)c3)C2)ccc1NS(=O)(=O)c1cnc(-c2ccc(Cl)cc2)s1` [Compound 96]: the minimum inhibitory concentration (MIC) (Acinetobacter baumannii, 20 h) was determined as 0.0122 µM (≈ 0.0106 µg/mL).
For `O=C(O)c1cc(CN2CC(Oc3ccc(NS(=O)(=O)c4ccc(-c5ccc(Cl)cc5)cc4)c(C(=O)O)c3)C2)ccc1NS(=O)(=O)c1ccc(-c2ccc(Cl)cc2)cc1` [Compound 97, 5-((1-(3-carboxy-4-((4′-chloro-(1,l′-biphenyl))-4-sulfonamido)benzyl)azetidin-3-yl)oxy)-2-((4′-chloro-(1,l′-biphenyl))-4-sulfonamido)benzoic acid], for the setting “Acinetobacter baumannii, 20 h”, the MIC was 0.0978 µM (≈ 0.084 µg/mL). Compared with the last molecule, the MIC is about 8-fold higher.
On the same count and under the same terms, next, `O=C(O)c1cc(CN2CC(Oc3ccc(NS(=O)(=O)c4ccc(-c5ccc(F)cc5)cc4)c(C(=O)O)c3)C2)ccc1NS(=O)(=O)c1ccc(-c2ccc(F)cc2)cc1` [Compound 98]: 0.0692 µM (≈ 0.0572 µg/mL).
Same read-out and setting: with `O=C(O)c1cc(CN2CC(Oc3ccc(NS(=O)(=O)c4ccc(-c5ccc(F)cc5)cc4)c(C(=O)O)c3)C2)ccc1NS(=O)(=O)CCc1ccc(Cl)cc1` [Compound 99, 5-((1-(3-carboxy-4-((2-(4-chlorophenyl)ethyl)sulfonamido)benzyl)azetidin-3-yl)oxy)-2-((4′-fluoro-[1, l′-biphenyl])-4-sulfonamido)benzoic acid] the figure was 0.0245 µM (≈ 0.0195 µg/mL).
In the case of `O=C(O)c1cc(CN2CC(Oc3ccc(NS(=O)(=O)c4ccc(-c5ccc(F)cc5)cc4)c(C(=O)O)c3)C2)ccc1NS(=O)(=O)c1cnn(-c2ccc(F)cc2)c1` [Compound 100], the MIC (Acinetobacter baumannii, 20 h) is 0.0489 µM (≈ 0.0399 µg/mL).
Regarding `O=C(O)c1cc(CN2CC(Oc3ccc(NS(=O)(=O)c4ccc(-c5cccc(Cl)c5)cc4)c(C(=O)O)c3)C2)ccc1NS(=O)(=O)CCc1ccc(Cl)cc1` [Compound 101], where the note is “Acinetobacter baumannii, 20 h”, the minimal inhibitory concentration (MIC) is 0.0245 µM (≈ 0.0199 µg/mL).
`O=C(O)c1cc(CN2CC(Oc3ccc(NS(=O)(=O)c4ccc(-c5ccc(F)cc5)cc4)c(C(=O)O)c3)C2)ccc1NS(=O)(=O)CCc1ccc(F)cc1` [Compound 102] gave an MIC (Acinetobacter baumannii, 20 h) of 0.0489 µM (≈ 0.038 µg/mL).
The same measure, in the same setting: next, `O=C(O)c1cc(CN2CC(Oc3ccc(NS(=O)(=O)c4ccc(-c5ccc(Cl)cc5)cc4)c(C(=O)O)c3)C2)ccc1NS(=O)(=O)c1ccc(OC(F)F)cc1` [Compound 103]: 0.0245 µM (≈ 0.0199 µg/mL).
Still for that read-out and setting: with `O=C(O)c1cc(CN2CC(Oc3ccc(NS(=O)(=O)c4ccc(-c5ccc(Cl)cc5)cc4)c(C(=O)O)c3)C2)ccc1NS(=O)(=O)c1cnn(-c2ccc(F)cc2)c1` [Compound 104] the figure was 0.0346 µM (≈ 0.0288 µg/mL).
For the molecule `O=C(O)c1cc(CN2CC(Oc3ccc(NS(=O)(=O)c4ccc(-c5ccc(Cl)cc5)cc4)c(C(=O)O)c3)C2)ccc1NS(=O)(=O)c1ccc(Oc2ccccc2)nc1` [Compound 105], the MIC (Acinetobacter baumannii, 20 h) worked out at 0.0245 µM (≈ 0.0206 µg/mL).
Same read-out and setting: with `Cn1nc(-c2ccccc2)cc1S(=O)(=O)Nc1ccc(CN2CC(Oc3ccc(NS(=O)(=O)c4ccc(-c5ccc(Cl)cc5)cc4)c(C(=O)O)c3)C2)cc1C(=O)O` [Compound 106] the figure was 0.0489 µM (≈ 0.0405 µg/mL).
Take `O=C(O)c1cc(OC2CN(Cc3ccc(NS(=O)(=O)c4ccc(-c5ccc(Cl)cc5)s4)c(C(=O)O)c3)C2)ccc1NS(=O)(=O)c1ccc(-c2ccc(F)cc2)cc1` [Compound 107]: for the setting “Acinetobacter baumannii, 20 h”, the MIC was determined as 0.0489 µM (≈ 0.0415 µg/mL).
The same measure, in the same setting: with `CCCCc1ccc(S(=O)(=O)Nc2ccc(CN3CC(Oc4ccc(NS(=O)(=O)c5ccc(-c6ccc(F)cc6)cc5)c(C(=O)O)c4)C3)cc2C(=O)O)cc1` [Compound 108] the figure was 0.0489 µM (≈ 0.0385 µg/mL).
As to `O=C(O)c1cc(OC2CN(Cc3ccc(NS(=O)(=O)c4cnn(-c5ccc(F)cc5)c4)c(-c4nn[nH]n4)c3)C2)ccc1NS(=O)(=O)c1cnn(-c2ccc(F)cc2)c1` [Compound 114, 2-((1-(4-fluorophenyl)-1H-pyrazole)-4-sulfonamido)-5-((1-(4-((1-(4-fluorophenyl)-1H-pyrazole)-4-sulfonamido)-3-(2H-tetrazol-5-yl)benzyl)azetidin-3-yl)oxy)benzoic acid], for the setting “Acinetobacter baumannii, 20 h”, the minimum inhibitory concentration (MIC) is 0.246 µM (≈ 0.204 µg/mL).
Still for that read-out and setting: next, `O=C(O)c1cc(CN2CC(Oc3ccc(NS(=O)(=O)c4cnn(-c5ccc(F)cc5)c4)c(C(=O)O)c3)C2)ccc1NS(=O)(=O)c1cnn(-c2ccc(F)cc2)c1` [Compound 115, 5-((1-(3-carboxy-4-(1-(4-fluorophenyl)-1H-pyrazole-4-sulfonamido)benzyl)azetidin-3-yl)oxy)-2-(1-(4-fluorophenyl)-1H-pyrazole-4-sulfonamido)benzoic acid]: 0.277 µM (≈ 0.223 µg/mL).
For `O=C(O)c1cc(CN2CC(Oc3ccc(NS(=O)(=O)c4coc(-c5ccc(F)cc5)n4)c(C(=O)O)c3)C2)ccc1NS(=O)(=O)c1coc(-c2ccc(F)cc2)n1` [Compound 116], the MIC (Acinetobacter baumannii, 20 h) came out at 0.0978 µM (≈ 0.079 µg/mL).
Where the note is “Acinetobacter baumannii, 20 h”, `O=C(O)c1cc(CN2CC(Oc3ccc(NS(=O)(=O)c4cnn(-c5ccc(Cl)cc5)c4)c(C(=O)O)c3)C2)ccc1NS(=O)(=O)c1cnn(-c2ccc(Cl)cc2)c1` [Compound 117] had an MIC of 0.0489 µM (≈ 0.041 µg/mL).
Regarding `O=C(O)c1cc(CN2CC(Oc3ccc(NS(=O)(=O)c4cnn(-c5ccc(F)cc5)n4)c(C(=O)O)c3)C2)ccc1NS(=O)(=O)c1cnn(-c2ccc(F)cc2)n1` [Compound 118], the MIC (Acinetobacter baumannii, 20 h) stood at 0.0245 µM (≈ 0.0198 µg/mL). Against the preceding molecule, the MIC is about 2-fold lower.
For the setting “Acinetobacter baumannii, 20 h”, `O=C(O)c1cc(CN2CC(Oc3ccc(NS(=O)(=O)c4cnc(-c5ccc(F)cc5)o4)c(C(=O)O)c3)C2)ccc1NS(=O)(=O)c1cnc(-c2ccc(F)cc2)o1` [Compound 120] gave an MIC of 0.0489 µM (≈ 0.0395 µg/mL).
Still for that read-out and setting: with `O=C(O)c1cc(CN2CC(Oc3ccc(NS(=O)(=O)c4cnn(-c5ccc(Cl)cn5)c4)c(C(=O)O)c3)C2)ccc1NS(=O)(=O)c1cnn(-c2ccc(Cl)cn2)c1` [Compound 121] the figure was 0.277 µM (≈ 0.233 µg/mL).
